Results: US20240400564A1 (Syndax Pharmaceuticals, Inc, priority 2021, published 2024)

Columns and labels:
[1] = system: MLLr leukemia cell line MV4-11; test: Cell proliferation assay MV4;11 (CellTiter-Glo, 72 hours); format: cell-based; settings: Homo sapiens; MV4-11 cells, 72 hours, CellTiter-Glo; read-out: MV4; 11 IC50
Summary of the method: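 Cells in IMDM/10% FBS, seeded from a 15,000 cells/ml suspension, were exposed for 72 h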

Menin-MLL = biological target: T1, Menin-MLL (Homo sapiens, UniProt O00255); test: Determination of binding constants to Menin-MLL (HTRF, EC50 and Ki); settings: 0.25 nM H-FL-Menin, 3.2 nM FITC-MLL-4-43, 24 hr incubation
T1 sequence (O00255 1-610): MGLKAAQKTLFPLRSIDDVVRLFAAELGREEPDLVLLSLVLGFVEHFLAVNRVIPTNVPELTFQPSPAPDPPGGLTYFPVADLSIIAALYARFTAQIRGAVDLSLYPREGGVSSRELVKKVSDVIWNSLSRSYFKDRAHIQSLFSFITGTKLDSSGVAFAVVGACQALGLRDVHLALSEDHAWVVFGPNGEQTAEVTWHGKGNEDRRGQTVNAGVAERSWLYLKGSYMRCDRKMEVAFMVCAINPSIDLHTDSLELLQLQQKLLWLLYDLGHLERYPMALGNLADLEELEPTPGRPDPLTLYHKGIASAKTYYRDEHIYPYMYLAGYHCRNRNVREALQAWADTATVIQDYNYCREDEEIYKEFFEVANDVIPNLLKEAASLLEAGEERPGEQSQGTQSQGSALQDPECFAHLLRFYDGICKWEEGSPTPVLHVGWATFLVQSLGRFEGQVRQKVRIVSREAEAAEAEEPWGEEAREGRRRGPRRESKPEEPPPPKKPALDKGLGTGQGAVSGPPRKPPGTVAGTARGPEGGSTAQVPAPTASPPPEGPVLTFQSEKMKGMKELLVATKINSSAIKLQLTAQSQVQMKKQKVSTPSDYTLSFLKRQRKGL

[2] = biological target: T2, human Menin and N-terminal portion of human MLL (amino acids 4-43) (Homo sapiens, UniProt O00255); test: Menin-MLL competition assay (HTRF); format: binding; settings: 1 hr incubation
T2 construct: H-FL-Menin diluted to 4 nM in assay buffer
T2 sequence (O00255 1-610): T1 sequence (O00255 1-610)
Summary of the method: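 HTRF competition: 1 nM His-tagged full-length Menin with 2 nM Tb-anti-His6 and 1 nM FITC-MLL(4-43), 1 h at room temperature in Tris pH 7.4 buffer with DTT, BSA, Triton X-100; 3.16-fold compound series, 2% DMSO. Ratio 520/485 normalized to DMSO and 1 μM reference-compound controls for IC50.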

hERG = hERG (Homo sapiens, UniProt Q12809); test: Patch clamp assay (hERG tail currents, whole-cell)
Sequence of hERG (Q12809 whole entry): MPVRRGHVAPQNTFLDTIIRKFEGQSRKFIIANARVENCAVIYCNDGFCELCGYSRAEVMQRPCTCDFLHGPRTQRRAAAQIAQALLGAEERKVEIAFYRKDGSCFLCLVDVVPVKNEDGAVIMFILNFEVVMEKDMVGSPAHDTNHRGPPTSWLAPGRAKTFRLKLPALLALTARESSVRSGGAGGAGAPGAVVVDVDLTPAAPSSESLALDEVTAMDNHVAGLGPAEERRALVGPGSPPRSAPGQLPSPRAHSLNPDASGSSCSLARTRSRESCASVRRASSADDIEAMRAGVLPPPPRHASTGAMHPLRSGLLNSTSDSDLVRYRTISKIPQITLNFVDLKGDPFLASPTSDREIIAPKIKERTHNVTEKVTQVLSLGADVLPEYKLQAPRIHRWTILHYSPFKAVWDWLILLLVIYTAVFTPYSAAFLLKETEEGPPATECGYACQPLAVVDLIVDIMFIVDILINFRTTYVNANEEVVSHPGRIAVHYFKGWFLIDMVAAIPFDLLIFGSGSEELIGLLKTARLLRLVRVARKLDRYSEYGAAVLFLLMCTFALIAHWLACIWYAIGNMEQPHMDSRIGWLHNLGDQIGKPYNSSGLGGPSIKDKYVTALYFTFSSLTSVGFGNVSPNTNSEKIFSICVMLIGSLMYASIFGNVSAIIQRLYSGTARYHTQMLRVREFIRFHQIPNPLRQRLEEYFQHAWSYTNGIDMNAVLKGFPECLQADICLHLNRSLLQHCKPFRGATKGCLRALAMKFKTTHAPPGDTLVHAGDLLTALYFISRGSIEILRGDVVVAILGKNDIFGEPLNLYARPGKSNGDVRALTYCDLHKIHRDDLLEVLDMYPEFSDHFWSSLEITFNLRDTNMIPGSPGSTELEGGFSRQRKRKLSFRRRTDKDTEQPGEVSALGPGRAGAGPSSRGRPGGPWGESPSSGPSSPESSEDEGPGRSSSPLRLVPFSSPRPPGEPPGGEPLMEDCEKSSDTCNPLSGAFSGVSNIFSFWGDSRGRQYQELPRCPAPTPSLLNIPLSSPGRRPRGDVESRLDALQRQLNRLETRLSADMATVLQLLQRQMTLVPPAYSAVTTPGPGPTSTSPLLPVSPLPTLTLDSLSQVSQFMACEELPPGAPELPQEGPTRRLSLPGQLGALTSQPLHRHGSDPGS
Protocol: The 35 mm culture dishes upon which cells were seeded at a density allowing single cells to be recorded were placed on the dish holder of the microscope and continuously perfused (at approximately 1 mL/min) with the bath solution described in section 4.6. All solutions applied to cells including the pipette solution were maintained at room temperature (19° C. to 30° C.). After formation of a Gigaohm seal between the patch electrodes and individual hERG stably transfected HEK 293 cells (pipette resistance range: 2.0 MS to 7.0 MS; seal resistance range: >1GΩ) the cell membrane across the pipette tip was ruptured to assure electrical access to the cell interior (whole-cell patch-configuration). In case the quality of the seal was poor, the process of seal formation was repeated with a different cell and a new pipette. As soon as a stable seal could be established, hERG outward tail currents were measured upon depolarization of the cell membrane to +20 mV for 2 s (activation of channels) from a holding potential of −80 mV and upon subsequent repolarization to −40 mV for 3 s. This voltage protocol (as shown below) was run at least 10 times at intervals of 10 s. If current density was judged to be too low for measurement, another cell was recorded.
During wash-in of the test item the voltage protocol indicated above was run continuously again at 10 s intervals until the steady-state level of block was reached.
The IC50 was determined by fitting the dose response curve with a 2-parameter logistic function (amax=100%).

CCS(=O)(=O)N[C@@H]1CC[C@@H](CN2CCC3(CC2)CN(c2ncncc2Oc2ccc(F)cc2C(=O)N(C(C)C)[C@H]2C[C@H](F)C2)C3)OC1 [Example 243, 2-((4-(7-(((2S,5R)-5-(Ethylsulfonamido)tetrahydro-2H-pyran-2-yl)methyl)-2,7-diazaspiro[3.5]nonan-2-yl)pyrimidin-5-yl)oxy)-5-fluoro-N-((1r,3r)-3-fluorocyclobutyl)-N-isopropylbenzamide]
IC50 [1]: < 100 nM | Ki (Menin-MLL): < 1 nM

CC(C)N(C(=O)c1cc(F)ccc1Oc1cncnc1N1CC2(CCN(C[C@@H]3CC[C@@H](NS(C)(=O)=O)CO3)CC2)C1)C1CC1 [Example 18, N-Cyclopropyl-5-fluoro-N-isopropyl-2-((4-(7-(((2S,5R)-5-(methylsulfonamido)tetrahydro-2H-pyran-2-yl)methyl)-2,7-diazaspiro[3.5]nonan-2-yl)pyrimidin-5-yl)oxy)benzamide]
IC50 [2]: < 100 nM | IC50 [1]: < 100 nM

CCN(C(=O)c1cc(F)ccc1Oc1cncnc1N1CC2(CCN(C[C@@H]3CC[C@@H](NS(=O)(=O)N(C)C)CO3)CC2)C1)C(C)C [Example 49, 2-((4-(7-(((2S,5R)-5-((N,N-Dimethylsulfamoyl)amino)tetrahydro-2H-pyran-2-yl)methyl)-2,7-diazaspiro[3.5]nonan-2-yl)pyrimidin-5-yl)oxy)-N-ethyl-5-fluoro-N-isopropylbenzamide]
IC50 [2]: < 100 nM | hERG % Remaining (hERG; 10 μM compound): +++ (≥66%) | hERG % Remaining (hERG; 30 μM compound): +++ (≥66%)

CCS(=O)(=O)N[C@@H]1CC[C@@H](CN2CCC3(CC2)CN(c2ncncc2Oc2ccc(F)cc2C(=O)N(C(C)C)[C@H]2C[C@H](C(F)F)C2)C3)OC1 [Example 246, N-((1r,3r)-3-(Difluoromethyl)cyclobutyl)-2-((4-(7-(((2S,5R)-5-(ethylsulfonamido)tetrahydro-2H-pyran-2-yl)methyl)-2,7-diazaspiro[3.5]nonan-2-yl)pyrimidin-5-yl)oxy)-5-fluoro-N-isopropylbenzamide]
IC50 [1]: < 100 nM | Ki (Menin-MLL): < 1 nM

CCN(C(=O)c1cc(F)ccc1Oc1cncnc1N1CC2(CCN(C[C@@H]3CC[C@@H](NS(=O)(=O)CC)CO3)CC2)C1)C(C)C [Example 2, N-Ethyl-2-((4-(7-(((2S,5R)-5-(ethylsulfonamido)tetrahydro-2H-pyran-2-yl)methyl)-2,7-diazaspiro[3.5]nonan-2-yl)pyrimidin-5-yl)oxy)-5-fluoro-N-isopropylbenzamide]
IC50 [2]: < 100 nM | hERG % Remaining (hERG; 10 μM compound): +++ (≥66%) | hERG % Remaining (hERG; 30 μM compound): +++ (≥66%)

CC(C)N(C(=O)c1cc(F)ccc1Oc1cncnc1N1CC2(CCN(C[C@@H]3CC[C@@H](NS(=O)(=O)C4COC4)CO3)CC2)C1)C(C)C [Example 16, 5-Fluoro-N,N-diisopropyl-2-((4-(7-(((2S,5R)-5-(oxetane-3-sulfonamido)tetrahydro-2H-pyran-2-yl)methyl)-2,7-diazaspiro[3.5]nonan-2-yl)pyrimidin-5-yl)oxy)benzamide]
IC50 [2]: < 100 nM | hERG % Remaining (hERG; 10 μM compound): +++ (≥66%) | hERG % Remaining (hERG; 30 μM compound): +++ (≥66%)

CCN(C(=O)c1cc(F)ccc1Oc1cncnc1N1CC2(CCN(C[C@@H]3CC[C@@H](NC(=O)Nc4ccccc4)CO3)CC2)C1)C(C)C [Example 215, N-Ethyl-5-fluoro-N-isopropyl-2-((4-(7-(((2S,5R)-5-(3-phenylureido)tetrahydro-2H-pyran-2-yl)methyl)-2,7-diazaspiro[3.5]nonan-2-yl)pyrimidin-5-yl)oxy)benzamide]
Menin-MLL Ki HTRF Assay: EC50 (nM) (Menin-MLL): ++ (250 nM and <100 nM)

CCN(C(=O)c1cc(F)ccc1Oc1cncnc1N1CC2(CCN(C[C@@H]3CC[C@@H](NS(=O)(=O)C4CC4)CO3)CC2)C1)C(C)C [Example 4, 2-((4-(7-(((2S,5R)-5-(Cyclopropanesulfonamido)tetrahydro-2H-pyran-2-yl)methyl)-2,7-diazaspiro[3.5]nonan-2-yl)pyrimidin-5-yl)oxy)-N-ethyl-5-fluoro-N-isopropylbenzamide]
IC50 [2]: < 100 nM | hERG % Remaining (hERG; 10 μM compound): +++ (≥66%) | hERG % Remaining (hERG; 30 μM compound): +++ (≥66%)

CCS(=N)(=O)N[C@@H]1CC[C@@H](CN2CCC3(CC2)CN(c2ncncc2Oc2ccc(F)cc2C(=O)N(C(C)C)C(C)C)C3)OC1 (mixture of isomers) [Example 225, 2-((4-(7-(((2S,5R)-5-(Ethylsulfonoamidimidamido)tetrahydro-2H-pyran-2-yl)methyl)-2,7-diazaspiro[3.5]nonan-2-yl)pyrimidin-5-yl)oxy)-5-fluoro-N,N-diisopropylbenzamide]
IC50 [1]: 100 to 1000 nM | Ki (Menin-MLL): < 1 nM

CCN(C(=O)c1cc(F)ccc1Oc1cncnc1N1CC2(CCN(C[C@@H]3CC[C@@H](NS(=O)(=O)C4CCOC4)CO3)CC2)C1)C(C)C (stereo partly drawn) [Example 10, N-Ethyl-5-fluoro-N-isopropyl-2-((4-(7-(((2S,5R)-5-((tetrahydrofuran)-3-sulfonamido)tetrahydro-2H-pyran-2-yl)methyl)-2,7-diazaspiro[3.5]nonan-2-yl)pyrimidin-5-yl)oxy)benzamide]
IC50 [2]: < 100 nM | IC50 [1]: < 100 nM

CC(C)N(CC(F)F)C(=O)c1cc(F)ccc1Oc1cncnc1N1CC2(CCN(C[C@@H]3CC[C@@H](NS(=O)(=O)C4CC4)CO3)CC2)C1 [Example 47, 2-((4-(7-(((2S,5R)-5-(Cyclopropanesulfonamido)tetrahydro-2H-pyran-2-yl)methyl)-2,7-diazaspiro[3.5]nonan-2-yl)pyrimidin-5-yl)oxy)-N-(2,2-difluoroethyl)-5-fluoro-N-isopropylbenzamide]
IC50 [2]: < 100 nM | hERG % Remaining (hERG; 10 μM compound): +++ (≥66%) | hERG % Remaining (hERG; 30 μM compound): ++ (233% and ≤66%)

CCS(=O)(=O)N[C@@H]1CC[C@@H](CN2CCC3(CC2)CN(c2ncncc2Oc2ccc(F)cc2C(=O)N(C(C)C)[C@H]2C[C@@H](C(F)F)C2)C3)OC1 [Example 245, N-((1s,3s)-3-(difluoromethyl)cyclobutyl)-2-((4-(7-(((2S,5R)-5-(ethylsulfonamido)tetrahydro-2H-pyran-2-yl)methyl)-2,7-diazaspiro[3.5]nonan-2-yl)pyrimidin-5-yl)oxy)-5-fluoro-N-isopropylbenzamide]
IC50 [1]: < 100 nM | Ki (Menin-MLL): < 1 nM

CCN(C(=O)c1cc(F)ccc1Oc1cncnc1N1CC2(CCN(C[C@H]3CC[C@H](NS(=O)(=O)CC)CO3)CC2)C1)C(C)C [Example 52, N-Ethyl-2-((4-(7-(((2R,5S)-5-(ethylsulfonamido)tetrahydro-2H-pyran-2-yl)methyl)-2,7-diazaspiro[3.5]nonan-2-yl)pyrimidin-5-yl)oxy)-5-fluoro-N-isopropylbenzamide]
EC50 (Menin-MLL): ≤ 50 nM

CCS(=O)(=O)N[C@@H]1CC[C@@H](CN2CCC3(CC2)CN(c2ncncc2Oc2ccc(F)cc2C(=O)N(C(C)C)C(C)C)C3)OC1 [Example 13, 2-((4-(7-(((2S,5R)-5-(Ethylsulfonamido)tetrahydro-2H-pyran-2-yl)methyl)-2,7-diazaspiro[3.5]nonan-2-yl)pyrimidin-5-yl)oxy)-5-fluoro-N,N-diisopropylbenzamide]
IC50 [2]: < 100 nM | hERG % Remaining (hERG; 1 μM compound): +++ (≥66%) | hERG % Remaining (hERG; 3 μM compound): +++ (≥66%) | hERG % Remaining (hERG; 10 μM compound): +++ (≥66%) | hERG % Remaining (hERG; 30 μM compound): ++ (233% and ≤66%) | hERG % Remaining (hERG; 100 μM compound): ++ (233% and ≤66%)

CCS(=O)(=O)N[C@@H]1CC[C@@H](CN2CCC3(CC2)CN(c2ncncc2Oc2ccc(F)cc2C(=O)N(C(C)C)[C@H]2C[C@@H](O)C2)C3)OC1 [Example 50, 2-((4-(7-(((2S,5R)-5-(Ethylsulfonamido)tetrahydro-2H-pyran-2-yl)methyl)-2,7-diazaspiro[3.5]nonan-2-yl)pyrimidin-5-yl)oxy)-5-fluoro-N-((1s,3s)-3-hydroxycyclobutyl)-N-isopropylbenzamide]
IC50 [2]: < 100 nM | IC50 [1]: < 100 nM

CC(C)N(C(=O)c1cc(F)ccc1Oc1cncnc1N1CC2(CCN(C[C@@H]3CC[C@@H](NS(=O)(=O)C(C)C)CO3)CC2)C1)[C@@H]1CCOC1 [Example 132, 5-Fluoro-N-isopropyl-2-((4-(7-(((2S,5R)-5-((1-methylethyl)sulfonamido)tetrahydro-2H-pyran-2-yl)methyl)-2,7-diazaspiro[3.5]nonan-2-yl)pyrimidin-5-yl)oxy)-N-((R)-tetrahydrofuran-3-yl)benzamide]
EC50 (Menin-MLL): 111 nM
